“And” between values parts separate entries of the source, which are not always exact repeats. Equal values may be shown once.
Tests used:
Design in all cases: species or system athymic mice
MDA-MB-435 (breastca) = test: in vivo efficacy, MDA-MB-435 (breastca) subcutaneous tumor model; conditions: MDA-MB-435, Early-SC, Q4D X3, 0.45 mg/kg/dose, intravenous
Protocol: (§1) NSC 694501 was evaluated for in vivo efficacy in athymic mice bearing 8 subcutaneous tumor models: LOX and UACC-62 (melanoma), OVCAR-3 and OVCAR-5 (ovarian ca), MDA-MB-435 (breastca), SF-295 and C-6 (glioma), and LS-174T (colonca). The models were selected on the basis of hollow fiber assays and in vitro time course assays.
(§2) A qDx5 schedule conferred better efficacy than a q4Dx3 schedule in each of the 4 models tested on two schedules. NSC 694501 was active over a wide dosage range in athymic mice using compound prepared fresh just prior to injection in 1% EtOH vehicle: On a qDx5 schedule, the maximum tolerated dose was approximately 120 μg/kg/dose and the minimum effective dose in one of the most sensitive models (SF-295) was 16 μg/kg/dose.

[1] = as above; conditions: athymic, mouse, in vivo; MDA-MB-435, Early-SC, Q4D X3, intravenous
Protocol: as §1, §2

[2] = system: 8 subcutaneous tumor models; test: in vivo efficacy, summary over 8 subcutaneous tumor models
Protocol: as §1, §2

[3] = as above; conditions: mouse, in vivo, intravenous; athymic mice, qDx5 schedule, prepared fresh in 1% EtOH vehicle; read-out: maximum tolerated dose
Protocol: as §1, §2

[4] = in vivo efficacy, SF-295 (glioma) subcutaneous tumor model; conditions: athymic, mouse, in vivo, SF-295, Early-SC
Protocol: as §1, §2

SF-295 (glioma) = test: as above; conditions: for BW Loss / Growth Delay % [(T − C)/C] / Optimal % T/C / value in parentheses in Growth Delay column / tumor free (tf): SF-295, Early-SC, intravenous
Protocol: as §1, §2

[5] = in vivo efficacy, UACC-62 (melanoma) subcutaneous tumor model; conditions: athymic, mouse, in vivo, UACC-62, Early-SC
Protocol: as §1, §2

UACC-62 (melanoma) = test: as above; conditions: UACC-62, Early-SC, intravenous
Protocol: as §1, §2

[6] = in vivo efficacy, OVCAR-5 (ovarian ca) subcutaneous tumor model; conditions: athymic, mouse, in vivo, OVCAR-5, Early-SC
Protocol: as §1, §2

OVCAR-5 (ovarian ca) = test: as above; conditions: OVCAR-5, Early-SC, intravenous
Protocol: as §1, §2

C=C1C[C@H]2C=Nc3cc(OCCCOc4cc5c(cc4OC)C(=O)N4CC(=C)C[C@H]4C=N5)c(OC)cc3C(=O)N2C1 [NSC 694501]
BW Loss (MDA-MB-435 (breastca)): 19.8%
Growth Delay % [(T − C)/C] (MDA-MB-435 (breastca)): 41%
Optimal % T/C (MDA-MB-435 (breastca)): 3%
tumor free (tf) (MDA-MB-435 (breastca)): 1 tf
MTD at 9 days [1]: 0.45 mg/kg
cell kill ([2]; i.v bolus): multi-log cell kill in 4 models
growth delays ([2]; i.v bolus): significant growth delays in 7 models
activity in tumor models ([2]; i.v bolus drug delivery): active in each of the 8 tumor models
MTD at 5 days [3]: ~0.12 mg/kg
MTD at 9 days ([4]; Q4D X3, intravenous): < 0.3 mg/kg
MTD at 5 days ([4]; QD X5, intravenous): 0.12 mg/kg
BW Loss (SF-295 (glioma); Q4D X3, 0.11 mg/kg/dose): 0.1%
Growth Delay % [(T − C)/C] (SF-295 (glioma); Q4D X3, 0.11 mg/kg/dose): 60%
Optimal % T/C (SF-295 (glioma); Q4D X3, 0.11 mg/kg/dose): 10%
value in parentheses in Growth Delay column (SF-295 (glioma); Q4D X3, 0.11 mg/kg/dose): 0.0 L
BW Loss (SF-295 (glioma); Q4D X3, 0.16 mg/kg/dose): 4.3%
Growth Delay % [(T − C)/C] (SF-295 (glioma); Q4D X3, 0.16 mg/kg/dose): 103%
Optimal % T/C (SF-295 (glioma); Q4D X3, 0.16 mg/kg/dose): 3%
value in parentheses in Growth Delay column (SF-295 (glioma); Q4D X3, 0.16 mg/kg/dose): 0.9 L
BW Loss (SF-295 (glioma); Q4D X3, 0.24 mg/kg/dose): 10.2%
Growth Delay % [(T − C)/C] (SF-295 (glioma); Q4D X3, 0.24 mg/kg/dose): 227%
Optimal % T/C (SF-295 (glioma); Q4D X3, 0.24 mg/kg/dose): 1 (1 tf) %
tumor free (tf) (SF-295 (glioma); Q4D X3, 0.24 mg/kg/dose): 1 (1 tf)
value in parentheses in Growth Delay column (SF-295 (glioma); Q4D X3, 0.24 mg/kg/dose): 3.2 L
BW Loss (SF-295 (glioma); Q4D X3, <0.30 mg/kg/dose): 24.0%
tumor free (tf) (SF-295 (glioma); Q4D X3, <0.30 mg/kg/dose, T/C unevaluable): ue (2 tf)
BW Loss (SF-295 (glioma); QD X5, 0.016 mg/kg/dose): 0.0%
Growth Delay % [(T − C)/C] (SF-295 (glioma); QD X5, 0.016 mg/kg/dose): 31%
Optimal % T/C (SF-295 (glioma); QD X5, 0.016 mg/kg/dose): 33%
BW Loss (SF-295 (glioma); QD X5, 0.024 mg/kg/dose): 3.6%
Growth Delay % [(T − C)/C] (SF-295 (glioma); QD X5, 0.024 mg/kg/dose): 61%
Optimal % T/C (SF-295 (glioma); QD X5, 0.024 mg/kg/dose): 12%
BW Loss (SF-295 (glioma); QD X5, 0.036 mg/kg/dose): 3.5%
Growth Delay % [(T − C)/C] (SF-295 (glioma); QD X5, 0.036 mg/kg/dose): 69%
Optimal % T/C (SF-295 (glioma); QD X5, 0.036 mg/kg/dose): 14%
BW Loss (SF-295 (glioma); QD X5, 0.054 mg/kg/dose): 4.7% and 2.8%
Growth Delay % [(T − C)/C] (SF-295 (glioma); QD X5, 0.054 mg/kg/dose): 165% and 206%
Optimal % T/C (SF-295 (glioma); QD X5, 0.054 mg/kg/dose): 2% and 0%
tumor free (tf) (SF-295 (glioma); QD X5, 0.054 mg/kg/dose): 1 tf
value in parentheses in Growth Delay column (SF-295 (glioma); QD X5, 0.054 mg/kg/dose): 2.6 L and 3.0 L
BW Loss (SF-295 (glioma); QD X5, 0.08 mg/kg/dose): 0.0%
Growth Delay % [(T − C)/C] (SF-295 (glioma); QD X5, 0.08 mg/kg/dose): 131%
Optimal % T/C (SF-295 (glioma); QD X5, 0.08 mg/kg/dose): 3%
value in parentheses in Growth Delay column (SF-295 (glioma); QD X5, 0.08 mg/kg/dose): 2.0 L
BW Loss (SF-295 (glioma); QD X5, 0.12 mg/kg/dose): 7.5% and 5.3%
Growth Delay % [(T − C)/C] (SF-295 (glioma); QD X5, 0.12 mg/kg/dose): 241% and 196%
Optimal % T/C (SF-295 (glioma); QD X5, 0.12 mg/kg/dose): 4 (4 tf) % and 2 (2 tf) %
tumor free (tf) (SF-295 (glioma); QD X5, 0.12 mg/kg/dose): 4 (4 tf) and 2 (2 tf)
value in parentheses in Growth Delay column (SF-295 (glioma); QD X5, 0.12 mg/kg/dose): 3.1 L and 3.2 L
minimum effective dose (SF-295 (glioma); SF-295, qDx5 schedule, athymic mice): 16 μg/kg/dose
MTD at 9 days ([5]; Q4D X3, intravenous): 0.45 mg/kg
MTD at 5 days ([5]; QD X5, intravenous): 0.054 mg/kg
BW Loss (UACC-62 (melanoma); Q4D X3, .45 mg/kg/dose): 20.9%
Growth Delay % [(T − C)/C] (UACC-62 (melanoma); Q4D X3, .45 mg/kg/dose): 43%
Optimal % T/C (UACC-62 (melanoma); Q4D X3, .45 mg/kg/dose): 28%
BW Loss (UACC-62 (melanoma); QD X5, 0.054 mg/kg/dose): 20.2%
Growth Delay % [(T − C)/C] (UACC-62 (melanoma); QD X5, 0.054 mg/kg/dose): 150%
Optimal % T/C (UACC-62 (melanoma); QD X5, 0.054 mg/kg/dose): 26%
value in parentheses in Growth Delay column (UACC-62 (melanoma); QD X5, 0.054 mg/kg/dose): 0.9 L
MTD at 9 days ([6]; Q4D X3, intravenous): 0.45 mg/kg
MTD at 5 days ([6]; QD X5, intravenous): 0.081 mg/kg
BW Loss (OVCAR-5 (ovarian ca); Q4D X3, 0.45 mg/kg/dose): 21.2%
Growth Delay % [(T − C)/C] (OVCAR-5 (ovarian ca); Q4D X3, 0.45 mg/kg/dose): 32%
Optimal % T/C (OVCAR-5 (ovarian ca); Q4D X3, 0.45 mg/kg/dose): 38%
BW Loss (OVCAR-5 (ovarian ca); QD X5, 0.081 mg/kg/dose): 2.6%
Growth Delay % [(T − C)/C] (OVCAR-5 (ovarian ca); QD X5, 0.081 mg/kg/dose): 102%
Optimal % T/C (OVCAR-5 (ovarian ca); QD X5, 0.081 mg/kg/dose): 13%
